Measurements taken from publication PMC11167517, “Synthesis, computational docking and molecular dynamics studies of a new class of spiroquinoxalinopyrrolidine embedded chromanone hybrids as potent anti-cholinesterase agents” (RSC Advances, 2024).

How the values were obtained:
[1] = target: acetylcholinesterase (AChE) (Electrophorus electricus, UniProt O42275); assay: In vitro acetylcholinesterase inhibitory assay (DTNB/acetylthiocholine iodide, absorbance at 412 nm); format: biochemical; conditions: IC50(BChE)/IC50(AChE)
Chain of acetylcholinesterase (AChE) (O42275 24-633): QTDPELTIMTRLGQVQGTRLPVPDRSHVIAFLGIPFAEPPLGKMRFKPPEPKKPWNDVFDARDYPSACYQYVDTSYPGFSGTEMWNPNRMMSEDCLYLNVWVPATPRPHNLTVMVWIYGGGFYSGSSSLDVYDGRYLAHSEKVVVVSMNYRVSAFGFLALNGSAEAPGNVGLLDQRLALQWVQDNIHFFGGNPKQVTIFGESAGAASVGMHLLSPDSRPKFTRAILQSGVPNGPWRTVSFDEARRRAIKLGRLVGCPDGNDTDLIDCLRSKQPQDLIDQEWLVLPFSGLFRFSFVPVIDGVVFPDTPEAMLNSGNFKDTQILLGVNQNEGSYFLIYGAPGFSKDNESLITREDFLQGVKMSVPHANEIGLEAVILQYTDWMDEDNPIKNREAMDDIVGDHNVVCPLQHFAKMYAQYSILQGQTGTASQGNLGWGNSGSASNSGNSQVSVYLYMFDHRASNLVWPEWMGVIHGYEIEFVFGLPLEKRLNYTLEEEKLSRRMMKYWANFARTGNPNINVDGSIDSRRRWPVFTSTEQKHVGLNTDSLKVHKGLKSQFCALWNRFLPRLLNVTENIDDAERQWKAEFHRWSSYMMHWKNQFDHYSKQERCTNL
Protocol: (§1) Acetylcholine is an important neurotransmitter involved in memory and cognition.[34] The enzymes AChE and BChE act on these neurotransmitters and degrade them to attenuate acetylcholine-mediated effects.[35] In neurodegenerative diseases, a reduced acetyl choline level is detrimental, leading to impaired memory and cognition.[36] […]
(§2) of test samples and 20 µL of 0.09 units/mL acetylcholinesterase enzyme. After 15 min. of incubation at 25 °C, 10 µL of 10 mM 5,50 -dithiobis-2-nitrobenzoic acid (DTNB) was added into each well followed by 10 µL of 14 mM acetylthiocholine iodide. Thirty minutes after the initiation of enzymatic reaction, absorbance of the colored end-product was measured using BioTek Power Wave X 340 Microplate Spectrophotometer at 412 nm. For butyrylcholinesterase (BuChE) inhibitory assay, the same procedure described above was followed, except for the use of enzyme and substrate, instead of which, butyrylcholine esterase from equine serum and S-butyrylthiocholine chloride were used. IC50 value was calculated by standard protocol Each test was conducted in triplicate. Absorbance of the test samples was corrected by subtracting the absorbance of their respective blank. Percentage inhibition was calculated using […]
(§3) Absorbance of control Absorbance of Sample
(§4) Percentage of inhibition = X 100
(§5) Selectivity for AChE defined as IC 50(BChE)/IC50(AChE).
(§6) Selectivity for BChE defined as IC 50(AChE)/IC50(BChE). […]

[2] = target: T1, butyrylcholine esterase from equine serum (BChE) (Equus caballus, UniProt P81908); assay: biochemical; conditions: for BChE selectivity: IC50(AChE)/IC50(BChE); for IC50: in vitro, triplicate, read-out: BChE inhibition IC50 μM (±SD)
T1 construct: esterase from equine serum; from tissue; host or cells: equine serum
T1 sequence (P81908 whole entry): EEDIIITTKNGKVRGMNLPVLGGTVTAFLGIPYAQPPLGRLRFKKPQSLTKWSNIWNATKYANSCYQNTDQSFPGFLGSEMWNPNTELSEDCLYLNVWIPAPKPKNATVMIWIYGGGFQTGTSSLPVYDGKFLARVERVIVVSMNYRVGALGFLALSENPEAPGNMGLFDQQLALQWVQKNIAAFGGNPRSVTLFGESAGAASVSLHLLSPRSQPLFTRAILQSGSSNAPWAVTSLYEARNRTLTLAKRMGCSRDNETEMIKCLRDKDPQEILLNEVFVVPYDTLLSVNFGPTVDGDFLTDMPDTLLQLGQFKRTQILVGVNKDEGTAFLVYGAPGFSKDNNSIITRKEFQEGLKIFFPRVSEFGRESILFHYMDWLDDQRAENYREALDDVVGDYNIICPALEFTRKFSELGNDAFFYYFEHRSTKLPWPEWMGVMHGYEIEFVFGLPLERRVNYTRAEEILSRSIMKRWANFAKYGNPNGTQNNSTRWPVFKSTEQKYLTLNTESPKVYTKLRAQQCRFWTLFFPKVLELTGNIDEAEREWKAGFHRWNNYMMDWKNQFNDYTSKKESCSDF
Protocol: as §1, §2, §3, §4, §5, §6

For `COc1cccc([C@@H]2[C@@H](Cc3ccccc3)NC3(c4ccccc4-c4nc5ccccc5nc43)[C@]23COc2ccccc2C3=O)c1` (stereo partly drawn) [Compound 5h], the AChE selectivity [1] was 1.25, the BChE selectivity [2] was 0.80 and the IC50 [2] was 30.15 ± 0.1 µM.
With `O=C1c2ccccc2OC[C@@]12[C@H](c1ccc(Cl)cc1)[C@@H](Cc1ccccc1)NC21c2ccccc2-c2nc3ccccc3nc21` (stereo partly drawn) [Compound 5d] the AChE selectivity [1] was 2.72, the BChE selectivity [2] was 0.37 and the IC50 [2] was 21.02 ± 0.18 µM.
`O=C1c2ccccc2OC[C@@]12[C@H](c1ccc(F)cc1)[C@@H](Cc1ccccc1)NC21c2ccccc2-c2nc3ccccc3nc21` (stereo partly drawn) [Compound 5f] showed an AChE selectivity [1] of 5.67, a BChE selectivity [2] of 0.18 and an IC50 [2] of 18.14 ± 0.06 µM.
Compound `O=C1c2ccccc2OC[C@@]12[C@H](c1ccccc1)[C@@H](Cc1ccccc1)NC21c2ccccc2-c2nc3ccccc3nc21` (stereo partly drawn) [Compound 5a] has an AChE selectivity [1] of 1.27, a BChE selectivity [2] of 0.79 and an IC50 [2] of 28.12 ± 0.25 µM.
`Cc1ccc([C@@H]2[C@@H](Cc3ccccc3)NC3(c4ccccc4-c4nc5ccccc5nc43)[C@]23COc2ccccc2C3=O)cc1` (stereo partly drawn) [Compound 5g] showed an AChE selectivity [1] of 1.38, a BChE selectivity [2] of 0.72 and an IC50 [2] of 29.8 ± 0.12 µM.
`O=C1c2ccccc2OC[C@@]12[C@H](c1ccccc1F)[C@@H](Cc1ccccc1)NC21c2ccccc2-c2nc3ccccc3nc21` (stereo partly drawn) [Compound 5e] was tested, and the AChE selectivity [1] was 3.83, the BChE selectivity [2] was 0.26 and the IC50 [2] was 20.2 ± 0.24 µM.
`O=C1c2ccccc2OCC12C(c1ccccc1Cl)C(Cc1ccccc1)NC21c2ccccc2-c2nc3ccccc3nc21` (stereo not drawn) [Compound 5c, 5-Benzyl-4-(2-chlorophenyl)-2-spiro[2,6′′]indenoquinoxalino-3-spiro[3,3′]-chromanonopyrrolidine] gave an AChE selectivity [1] of 4.92, a BChE selectivity [2] of 0.20 and an IC50 [2] of 22.16 ± 0.14 µM.
Compound `O=C1c2ccccc2OC[C@@]12[C@H](c1ccc(Br)cc1)[C@@H](Cc1ccccc1)NC21c2ccccc2-c2nc3ccccc3nc21` (stereo partly drawn) [Compound 5b] has an AChE selectivity [1] of 1.32, a BChE selectivity [2] of 0.76 and an IC50 [2] of 24.12 ± 0.16 µM.
Compound `COc1ccc([C@@H]2[C@@H](Cc3ccccc3)NC3(c4ccccc4-c4nc5ccccc5nc43)[C@]23COc2ccccc2C3=O)cc1` (stereo partly drawn) [Compound 5i] has an AChE selectivity [1] of 1.29, a BChE selectivity [2] of 0.77 and an IC50 [2] of 29.18 ± 0.12 µM.
`O=C1c2ccccc2OC[C@@]12[C@H](c1cccc([N+](=O)[O-])c1)[C@@H](Cc1ccccc1)NC21c2ccccc2-c2nc3ccccc3nc21` (stereo partly drawn) [Compound 5j] was tested, and the AChE selectivity [1] was 1.93, the BChE selectivity [2] was 0.52 and the IC50 [2] was 20.16 ± 0.2 µM.
